Consider 5 compounds from PubChem BioAssay AID2060904 (Molecular Pharmacology Branch, DTP, NCI, 2025).

A word on the IC50: it is the midpoint of a concentration-inhibition curve. As usually defined, the viability, T/C is the ratio of treated to control.

Where “and” joins values, the source holds several entries; their conditions need not be identical. Identical values can stand only once.

The test system of the experiment is 349418-098-R-PDC complex spheroid viability. Briefly: Anticancer human tumor 349418-098-R-PDC patient-derived lung adenocarcinoma cell line growth inhibition [RAS]. Conditions: for viability, T/C: stronger effect = lower value. The procedure, abridged: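 Multi-cell-type spheroids: tumor cells plus HUVEC endothelial cells and mesenchymal stem cells. RAS-pathway inhibitors were combined with targeted agents, each dosed in half-log steps down from clinical Cmax, or from 10 microM when Cmax was unknown.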

Setting [1] is: curve of first compound, second compound 0.0316 µM.
Setting [2] is: curve of first compound, second compound 0.1 µM.
Where [3] appears, read: curve of first compound, second compound 0.316 µM.
The mark [4] stands for this setting: curve of first compound, second compound 1 µM.
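Further: spheroids exposed to compound for seven days before viability readout.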

For `CC1(C)CCC(Nc2ncc(C(F)(F)F)c(-c3c[nH]c4c(P(C)(C)=O)c(C#N)ccc34)n2)CN1` (stereo not drawn) + C=CC(=O)N1CCN(c2nc(OCC3CCCN3C)nc3c(F)c(-c4nc(N)cc(C)c4C(F)(F)F)c(Cl)cc23)C(C)C1, the IC50 is 1.25 nM (curve of first compound, second compound 0.00316 µM); 1.19 nM (curve of first compound, second compound 0.01 µM); less than 0.949 nM under setting [1]; 1.07 nM under setting [2]; 1.16 nM under setting [3]; 1.27 nM under setting [4]. In addition, the viability, T/C (second compound 0.00316 µM, first compound 0.000949 µM) is 57.1%; the viability, T/C (second compound 0.00316 µM, first compound 0.003 µM) is 27.2%; the viability, T/C (second compound 0.00316 µM, first compound 0.00949 µM) was 15.7%; the viability, T/C (second compound 0.00316 µM, first compound 0.03 µM) is 9.16%; the viability, T/C (second compound 0.00316 µM, first compound 0.0949 µM) was 9.76%; the viability, T/C (second compound 0.00316 µM, first compound 0.3 µM) was 8.19%. Besides, the viability, T/C runs as follows: (second compound 0.01 µM, first compound 0.000949 µM) 56.4%; (second compound 0.01 µM, first compound 0.003 µM) 24.6%; (second compound 0.01 µM, first compound 0.00949 µM) 16.1%; (second compound 0.01 µM, first compound 0.03 µM) 9.39%; (second compound 0.01 µM, first compound 0.0949 µM) 12.1%; (second compound 0.01 µM, first compound 0.3 µM) 7.38%. Further, the viability, T/C was 44% (second compound 0.0316 µM, first compound 0.000949 µM); 23.3% (second compound 0.0316 µM, first compound 0.003 µM); 18.3% (second compound 0.0316 µM, first compound 0.00949 µM); 11.6% (second compound 0.0316 µM, first compound 0.03 µM); 11.7% (second compound 0.0316 µM, first compound 0.0949 µM); 8.91% (second compound 0.0316 µM, first compound 0.3 µM). Also, the viability, T/C reads like this: (second compound 0.1 µM, first compound 0.000949 µM) 53.1%; (second compound 0.1 µM, first compound 0.003 µM) 25.3%; (second compound 0.1 µM, first compound 0.00949 µM) 12.4%; (second compound 0.1 µM, first compound 0.03 µM) 14.6%; (second compound 0.1 µM, first compound 0.0949 µM) 13.2%; (second compound 0.1 µM, first compound 0.3 µM) 8.82%. The viability, T/C runs as follows: (second compound 0.316 µM, first compound 0.000949 µM) 54.9%; (second compound 0.316 µM, first compound 0.003 µM) 29.1%; (second compound 0.316 µM, first compound 0.00949 µM) 14.6%; (second compound 0.316 µM, first compound 0.03 µM) 12.8%; (second compound 0.316 µM, first compound 0.0949 µM) 13.3%; (second compound 0.316 µM, first compound 0.3 µM) 9.31%. Besides, the viability, T/C by setting is: (second compound 1 µM, first compound 0.000949 µM) 58.9%; (second compound 1 µM, first compound 0.003 µM) 24.2%; (second compound 1 µM, first compound 0.00949 µM) 15.7%; (second compound 1 µM, first compound 0.03 µM) 14.2%; (second compound 1 µM, first compound 0.0949 µM) 10.3%; (second compound 1 µM, first compound 0.3 µM) 7.97%.
For `CC1(C)CCC(Nc2ncc(C(F)(F)F)c(-c3c[nH]c4c(P(C)(C)=O)c(C#N)ccc34)n2)CN1` (stereo not drawn), the viability, T/C (compound 0.000949 µM) was 65.3% [middle of 4 runs]; the viability, T/C (compound 0.003 µM) was 24.7% [middle of 4 runs]; the viability, T/C (compound 0.00949 µM) is 15.5% [middle of 4 runs]; the viability, T/C (compound 0.03 µM) is 9.86% [middle of 4 runs]; the viability, T/C (compound 0.0949 µM) was 8.72% [middle of 4 runs]; the viability, T/C (compound 0.3 µM) is 8.1% [middle of 4 runs]. In addition, the IC50 (curve of compound) is 1.47 nM and < 0.949 nM and 1.51 nM.
Regarding `C=CC(=O)N1CCN(c2nc(OCC3CCCN3C)nc3c(F)c(-c4nc(N)cc(C)c4C(F)(F)F)c(Cl)cc23)C(C)C1` (stereo not drawn), the viability, T/C runs as follows: (compound 0.1 µM) 102% [middle of 12 runs]; (compound 0.316 µM) 95.8% [middle of 12 runs]; (compound 1 µM) 85.1% [middle of 12 runs]. The IC50 was greater than 1000 nM (compound alone, run of 06/10/2024) and greater than 1000 nM (curve of compound).
Regarding `CC(=O)OC12COC1CC(O)C1(C)C(=O)C(O)C3=C(C)C(OC(=O)C(O)C(NC(=O)OC(C)(C)C)c4ccccc4)CC(O)(C(OC(=O)c4ccccc4)C21)C3(C)C` (stereo not drawn) + C#Cc1c(F)ccc2cc(O)cc(-c3ncc4c(N5CC6CCC(C5)N6)nc(OCC56CCCN5CC(F)C6)nc4c3F)c12, the IC50 is less than 31.6 nM under setting [1]; less than 31.6 nM under setting [2]; less than 31.6 nM under setting [3]; less than 31.6 nM under setting [4]; less than 31.6 nM (curve of first compound, second compound 3.16 µM); less than 31.6 nM (curve of first compound, second compound 10 µM). Also, the viability, T/C by setting is: (second compound 0.0316 µM, first compound 0.0316 µM) 16.5%; (second compound 0.0316 µM, first compound 0.1 µM) 15.4%; (second compound 0.0316 µM, first compound 0.316 µM) 21.2%; (second compound 0.0316 µM, first compound 1 µM) 19.1%; (second compound 0.0316 µM, first compound 3.16 µM) 19.9%; (second compound 0.0316 µM, first compound 10 µM) 22.4%. Also, the viability, T/C by setting is: (second compound 0.1 µM, first compound 0.0316 µM) 16.3%; (second compound 0.1 µM, first compound 0.1 µM) 23.3%; (second compound 0.1 µM, first compound 0.316 µM) 19.9%; (second compound 0.1 µM, first compound 1 µM) 18.4%; (second compound 0.1 µM, first compound 3.16 µM) 24.4%; (second compound 0.1 µM, first compound 10 µM) 27%. In addition, the viability, T/C (second compound 0.316 µM, first compound 0.0316 µM) was 16.1%; the viability, T/C (second compound 0.316 µM, first compound 0.1 µM) is 19.1%; the viability, T/C (second compound 0.316 µM, first compound 0.316 µM) is 26%; the viability, T/C (second compound 0.316 µM, first compound 1 µM) is 21.1%; the viability, T/C (second compound 0.316 µM, first compound 3.16 µM) is 23.3%; the viability, T/C (second compound 0.316 µM, first compound 10 µM) was 24.5%. Also, the viability, T/C was 16.8% (second compound 1 µM, first compound 0.0316 µM); 16.6% (second compound 1 µM, first compound 0.1 µM); 21.4% (second compound 1 µM, first compound 0.316 µM); 18.2% (second compound 1 µM, first compound 1 µM); 19.1% (second compound 1 µM, first compound 3.16 µM); 24.4% (second compound 1 µM, first compound 10 µM). The viability, T/C reads like this: (second compound 3.16 µM, first compound 0.0316 µM) 13.2%; (second compound 3.16 µM, first compound 0.1 µM) 17.9%; (second compound 3.16 µM, first compound 0.316 µM) 17.5%; (second compound 3.16 µM, first compound 1 µM) 24.6%; (second compound 3.16 µM, first compound 3.16 µM) 31.2%; (second compound 3.16 µM, first compound 10 µM) 23.4%. Further, the viability, T/C by setting is: (second compound 10 µM, first compound 0.0316 µM) 7.77%; (second compound 10 µM, first compound 0.1 µM) 5.42%; (second compound 10 µM, first compound 0.316 µM) 9.77%; (second compound 10 µM, first compound 1 µM) 6.32%; (second compound 10 µM, first compound 3.16 µM) 7.62%; (second compound 10 µM, first compound 10 µM) 5.03%.
Consider `CC1(O)CCCC1n1c(=O)c(C(F)F)cc2cnc(NC3CCN(S(C)(=O)=O)CC3)nc21` (stereo not drawn), for which the viability, T/C by setting is: (compound 0.0316 µM) 79.5% [middle of 4 runs]; (compound 0.1 µM) 43% [middle of 4 runs]; (compound 0.316 µM) 26.1% [middle of 4 runs]; (compound 1 µM) 22.1% [middle of 4 runs]; (compound 3.16 µM) 19.5% [middle of 4 runs]; (compound 10 µM) 2.67% [middle of 4 runs]. In addition, the IC50 (curve of compound) was 87.8 nM [middle of 4 runs].
